Results: the NIST ThermoML archive (doi:10.1021/je800110r)
± gives the expanded uncertainty stated by the source.

Details: Liquid, Vibrating tube method

CCCCCCCCCC [decane]
mass density [kg/m3]
Details	283.15 K	293.14 K
635 kPa	–	730.3 ± 2
660 kPa	–	730.5 ± 2
720 kPa	–	730.4 ± 2
803 kPa	–	730.5 ± 2
26776 kPa	755.1 ± 2.1	–
26808 kPa	755.2 ± 2.1	–
26844 kPa	755.1 ± 2.1	–
26869 kPa	755.2 ± 2.1	–
26895 kPa	755.3 ± 2.1	–
26931 kPa	755.3 ± 2.1	–
26952 kPa	755.2 ± 2.1	–
26974 kPa	755.3 ± 2.1	–
27007 kPa	755.3 ± 2.1	–
27036 kPa	755.3 ± 2.1	–
27058 kPa	755.3 ± 2.1	–
27090 kPa	755.5 ± 2.1	–
27112 kPa	755.3 ± 2.1	–
27145 kPa	755.4 ± 2.1	–
27171 kPa	755.4 ± 2.1	–
27193 kPa	755.5 ± 2.1	–
27219 kPa	755.3 ± 2.1	–
27242 kPa	755.5 ± 2.1	–
27268 kPa	755.6 ± 2.1	–
27295 kPa	755.5 ± 2.1	–
27321 kPa	755.4 ± 2.1	–
27347 kPa	755.6 ± 2.1	–
27373 kPa	755.5 ± 2.1	–
27611 kPa	755.7 ± 2.1	–
27638 kPa	755.7 ± 2.1	–
27665 kPa	755.8 ± 2.1	–
27700 kPa	755.7 ± 2.1	–
27726 kPa	755.8 ± 2.1	–
27749 kPa	755.7 ± 2.1	–
27784 kPa	755.8 ± 2.1	–
27818 kPa	755.8 ± 2.1	–
27842 kPa	755.9 ± 2.1	–
27876 kPa	755.9 ± 2.1	–
27908 kPa	755.9 ± 2.1	–
27935 kPa	755.9 ± 2.1	–
27963 kPa	755.9 ± 2.1	–
27990 kPa	755.9 ± 2.1	–
28021 kPa	755.9 ± 2.1	–
28049 kPa	755.9 ± 2.1	–
28076 kPa	756 ± 2.1	–
28113 kPa	756 ± 2.1	–
28134 kPa	756 ± 2.1	–
28171 kPa	756 ± 2.1	–
28206 kPa	756 ± 2.1	–
28227 kPa	756 ± 2.1	–
28251 kPa	756.1 ± 2.1	–
28288 kPa	756.1 ± 2.1	–
28322 kPa	756.2 ± 2.1	–
28344 kPa	756.1 ± 2.1	–
28377 kPa	756 ± 2.1	–
28409 kPa	756.2 ± 2.1	–
28431 kPa	756.3 ± 2.1	–
28463 kPa	756.1 ± 2.1	–
28486 kPa	756.2 ± 2.1	–
28515 kPa	756.3 ± 2.1	–
28541 kPa	756.2 ± 2.1	–
28571 kPa	756.3 ± 2.1	–
28597 kPa	756.3 ± 2.1	–
28616 kPa	756.2 ± 2.1	–
28645 kPa	756.3 ± 2.1	–
28678 kPa	756.4 ± 2.1	–
28701 kPa	756.3 ± 2.1	–
28728 kPa	756.4 ± 2.1	–
28766 kPa	756.4 ± 2.1	–
28792 kPa	756.5 ± 2.1	–
28822 kPa	756.4 ± 2.1	–
28845 kPa	756.5 ± 2.1	–
28872 kPa	756.5 ± 2.1	–
28899 kPa	756.5 ± 2.1	–
28925 kPa	756.5 ± 2.1	–
28952 kPa	756.4 ± 2.1	–
28987 kPa	756.5 ± 2.1	–
29014 kPa	756.5 ± 2.1	–
29040 kPa	756.5 ± 2.1	–
29067 kPa	756.5 ± 2.1	–
29114 kPa	756.7 ± 2.1	–
29141 kPa	756.6 ± 2.1	–
29203 kPa	756.7 ± 2.1	–
29251 kPa	756.7 ± 2.1	–
29278 kPa	756.6 ± 2.1	–
29309 kPa	756.6 ± 2.1	–
29341 kPa	756.7 ± 2.1	–
29368 kPa	756.7 ± 2.1	–
29392 kPa	756.6 ± 2.1	–
29424 kPa	756.7 ± 2.1	–
29460 kPa	756.7 ± 2.1	–
29484 kPa	756.8 ± 2.1	–
29508 kPa	756.7 ± 2.1	–
29555 kPa	756.8 ± 2.1	–
29591 kPa	756.8 ± 2.1	–
29652 kPa	756.9 ± 2.1	–
29688 kPa	757 ± 2.1	–
30170 kPa	757.2 ± 2.1	–
30200 kPa	757.3 ± 2.1	–
30225 kPa	757.3 ± 2.1	–
30263 kPa	757.3 ± 2.1	–
30301 kPa	757.1 ± 2.1	–
30327 kPa	757.2 ± 2.1	–
30365 kPa	757.4 ± 2.1	–
30399 kPa	757.3 ± 2.1	–
30425 kPa	757.3 ± 2.1	–
30461 kPa	757.4 ± 2.1	–
30487 kPa	757.4 ± 2.1	–
30512 kPa	757.4 ± 2.1	–
30539 kPa	757.4 ± 2.1	–
30561 kPa	757.4 ± 2.1	–
30603 kPa	757.4 ± 2.1	–
30638 kPa	757.4 ± 2.1	–
30664 kPa	757.4 ± 2.1	–
30704 kPa	757.5 ± 2.1	–
30740 kPa	757.4 ± 2.1	–
30771 kPa	757.5 ± 2.1	–
30836 kPa	757.5 ± 2.1	–
30867 kPa	757.5 ± 2.1	–
30893 kPa	757.6 ± 2.1	–
30975 kPa	757.6 ± 2.1	–
31003 kPa	757.6 ± 2.1	–
31031 kPa	757.7 ± 2.1	–
31062 kPa	757.8 ± 2.1	–
31099 kPa	757.6 ± 2.1	–
31136 kPa	757.6 ± 2.1	–
31162 kPa	757.7 ± 2.1	–
31187 kPa	757.9 ± 2.1	–
31218 kPa	757.7 ± 2.1	–
31253 kPa	757.8 ± 2.1	–
31284 kPa	757.9 ± 2.1	–
31310 kPa	757.9 ± 2.1	–
31337 kPa	757.9 ± 2.1	–
31363 kPa	757.8 ± 2.1	–
31377 kPa	757.9 ± 2.1	–
31402 kPa	757.9 ± 2.1	–
31424 kPa	758 ± 2.1	–
31441 kPa	758 ± 2.1	–
31463 kPa	758 ± 2.1	–
31492 kPa	758 ± 2.1	–
31509 kPa	758 ± 2.1	–
31566 kPa	757.9 ± 2.1	–
31598 kPa	758 ± 2.1	–
31615 kPa	758 ± 2.1	–
31631 kPa	758 ± 2.1	–
31657 kPa	758.2 ± 2.1	–
31680 kPa	758 ± 2.1	–
31697 kPa	758.1 ± 2.1	–
31724 kPa	758.2 ± 2.1	–
31749 kPa	758.2 ± 2.1	–
31769 kPa	758.1 ± 2.1	–
31794 kPa	758.1 ± 2.1	–
31815 kPa	758.3 ± 2.1	–
31835 kPa	758.2 ± 2.1	–
31855 kPa	758.3 ± 2.1	–
31878 kPa	758.3 ± 2.1	–
32055 kPa	758.2 ± 2.1	–
32091 kPa	758.2 ± 2.1	–
32141 kPa	758.3 ± 2.1	–
32209 kPa	758.4 ± 2.1	–
32230 kPa	758.4 ± 2.1	–
32248 kPa	758.4 ± 2.1	–
32268 kPa	758.5 ± 2.1	–
32289 kPa	758.5 ± 2.1	–
32312 kPa	758.4 ± 2.1	–
32330 kPa	758.4 ± 2.1	–
32357 kPa	758.5 ± 2.1	–
32378 kPa	758.5 ± 2.1	–
32405 kPa	758.4 ± 2.1	–
32427 kPa	758.6 ± 2.1	–
32445 kPa	758.5 ± 2.1	–
32465 kPa	758.5 ± 2.1	–
32490 kPa	758.6 ± 2.1	–
32511 kPa	758.4 ± 2.1	–
32535 kPa	758.6 ± 2.1	–
32559 kPa	758.5 ± 2.1	–
32597 kPa	758.6 ± 2.1	–
32618 kPa	758.6 ± 2.1	–
32636 kPa	758.6 ± 2.1	–
32655 kPa	758.6 ± 2.1	–
32682 kPa	758.7 ± 2.1	–
32708 kPa	758.8 ± 2.1	–
32727 kPa	758.6 ± 2.1	–
32746 kPa	758.7 ± 2.1	–
32767 kPa	758.6 ± 2.1	–
32793 kPa	758.6 ± 2.1	–
32811 kPa	758.7 ± 2.1	–
32827 kPa	758.8 ± 2.1	–
32850 kPa	758.7 ± 2.1	–
32869 kPa	758.7 ± 2.1	–
32894 kPa	758.7 ± 2.1	–
32922 kPa	758.8 ± 2.1	–
32944 kPa	758.8 ± 2.1	–
32966 kPa	758.7 ± 2.1	–
32989 kPa	758.9 ± 2.1	–
33018 kPa	758.8 ± 2.1	–
33037 kPa	758.9 ± 2.1	–
33062 kPa	758.7 ± 2.1	–
33085 kPa	758.9 ± 2.1	–
33107 kPa	758.9 ± 2.1	–
33133 kPa	759 ± 2.1	–
33155 kPa	758.9 ± 2.1	–
33178 kPa	759 ± 2.1	–
33200 kPa	759.1 ± 2.1	–
33220 kPa	759 ± 2.1	–
33249 kPa	759 ± 2.1	–
33275 kPa	759 ± 2.1	–
33295 kPa	759 ± 2.1	–
33544 kPa	759.2 ± 2.1	–
33573 kPa	759.1 ± 2.1	–
33592 kPa	759.1 ± 2.1	–
33621 kPa	759.2 ± 2.1	–
33651 kPa	759.1 ± 2.1	–
33667 kPa	759.3 ± 2.1	–
33690 kPa	759.3 ± 2.1	–
33707 kPa	759.1 ± 2.1	–
33737 kPa	759.2 ± 2.1	–
33761 kPa	759.3 ± 2.1	–
33781 kPa	759.2 ± 2.1	–
33805 kPa	759.2 ± 2.1	–
33822 kPa	759.3 ± 2.1	–
33852 kPa	759.2 ± 2.1	–
33873 kPa	759.3 ± 2.1	–
33897 kPa	759.2 ± 2.1	–
33922 kPa	759.3 ± 2.1	–
33943 kPa	759.4 ± 2.1	–
33964 kPa	759.4 ± 2.1	–
33982 kPa	759.3 ± 2.1	–
34002 kPa	759.4 ± 2.1	–
34022 kPa	759.4 ± 2.1	–
34045 kPa	759.4 ± 2.1	–
34063 kPa	759.5 ± 2.1	–
34081 kPa	759.3 ± 2.1	–
34104 kPa	759.4 ± 2.1	–
34127 kPa	759.6 ± 2.1	–
34148 kPa	759.4 ± 2.1	–
34169 kPa	759.4 ± 2.1	–
34195 kPa	759.5 ± 2.1	–
34214 kPa	759.5 ± 2.1	–
34237 kPa	759.6 ± 2.1	–
34264 kPa	759.5 ± 2.1	–
34311 kPa	759.6 ± 2.1	–
34330 kPa	–	753.1 ± 2.1
34339 kPa	759.5 ± 2.1	–
34351 kPa	–	753.1 ± 2.1
34359 kPa	759.6 ± 2.1	–
34380 kPa	–	753.2 ± 2.1
34400 kPa	–	753.1 ± 2.1
34412 kPa	–	753.3 ± 2.1
34420 kPa	–	753.2 ± 2.1
34428 kPa	–	753.1 ± 2.1
34437 kPa	–	753.2 ± 2.1
34447 kPa	759.6 ± 2.1	–
34451 kPa	–	753.2 ± 2.1
34459 kPa	–	753.2 ± 2.1
34471 kPa	–	753.2 ± 2.1
34478 kPa	759.7 ± 2.1	–
34481 kPa	–	753.1 ± 2.1
34490 kPa	759.6 ± 2.1	–
34491 kPa	–	753.1 ± 2.1
34504 kPa	759.7 ± 2.1	753.2 ± 2.1
34514 kPa	759.7 ± 2.1	–
34517 kPa	–	753.2 ± 2.1
34527 kPa	–	753.2 ± 2.1
34530 kPa	759.6 ± 2.1	–
34537 kPa	–	753.3 ± 2.1
34543 kPa	–	753.2 ± 2.1
34544 kPa	759.7 ± 2.1	–
34545 kPa	–	753.3 ± 2.1
34551 kPa	759.7 ± 2.1	–
34558 kPa	759.6 ± 2.1	–
34561 kPa	759.7 ± 2.1	–
34564 kPa	759.8 ± 2.1	–
34567 kPa	759.6 ± 2.1	–
